These results are taken from paper PMC9917406, “Synthesis, Biological and In Silico Studies of Griseofulvin and Usnic Acid Sulfonamide Derivatives as Fungal, Bacterial and Human Carbonic Anhydrase Inhibitors” (International Journal of Molecular Sciences, 2023).

Type in all cases: biochemical
For one assay, the target named is hCA I (Homo sapiens, UniProt P00915). The experiment in a line: stopped-flow CO2 hydrase assay, hCA I. The settings on record: mean from 3 different assays, errors ±5–10%.
Chain of hCA I (P00915 whole entry): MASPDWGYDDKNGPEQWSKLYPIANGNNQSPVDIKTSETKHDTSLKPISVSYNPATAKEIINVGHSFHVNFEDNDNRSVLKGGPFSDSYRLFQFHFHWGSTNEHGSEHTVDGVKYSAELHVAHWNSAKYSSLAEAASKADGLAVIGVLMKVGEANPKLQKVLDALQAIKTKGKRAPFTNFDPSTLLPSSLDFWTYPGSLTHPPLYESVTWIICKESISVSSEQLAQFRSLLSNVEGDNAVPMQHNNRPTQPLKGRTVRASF
The target of the next assay is hCA IX (Homo sapiens, UniProt Q16790). The assay can be described thus: stopped-flow CO2 hydrase assay, hCA IX. The following applies: mean from 3 different assays, errors ±5–10%; read-out: KI hCAIX.
A further assay deals with hCA II (Homo sapiens, UniProt P00918). The assay can be described thus: stopped-flow CO2 hydrase assay, hCA II.
The target in a further assay is CpsCAγ (Colwellia psychrerythraea, UniProt Q48AV3). The assay can be described thus: biochemical.
Chain of CpsCAγ (Q48AV3 entry or part of it): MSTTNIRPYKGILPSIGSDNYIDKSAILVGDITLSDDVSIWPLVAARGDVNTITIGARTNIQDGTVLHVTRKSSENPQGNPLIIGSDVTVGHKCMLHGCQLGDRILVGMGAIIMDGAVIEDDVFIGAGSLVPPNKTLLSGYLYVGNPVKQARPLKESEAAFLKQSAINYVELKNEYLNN
The target of the next assay is T1, PgiCAβ (Porphyromonas gingivalis, UniProt B2RL07).
T1 sequence (B2RL07 19-242): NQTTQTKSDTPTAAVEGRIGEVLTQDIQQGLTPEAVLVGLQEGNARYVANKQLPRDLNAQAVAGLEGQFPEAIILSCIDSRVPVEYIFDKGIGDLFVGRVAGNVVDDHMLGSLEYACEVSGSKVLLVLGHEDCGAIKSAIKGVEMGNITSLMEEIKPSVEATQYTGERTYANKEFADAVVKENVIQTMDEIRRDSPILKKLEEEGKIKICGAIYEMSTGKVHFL
The assay can be described thus: stopped-flow CO2 hydrase assay, PgiCAβ. The following applies: mean from 3 different assays, errors ±5–10%.

A further assay addresses T2, SmuCA (Streptococcus mutans, UniProt Q8DVY1).
T2 sequence (Q8DVY1 1-166): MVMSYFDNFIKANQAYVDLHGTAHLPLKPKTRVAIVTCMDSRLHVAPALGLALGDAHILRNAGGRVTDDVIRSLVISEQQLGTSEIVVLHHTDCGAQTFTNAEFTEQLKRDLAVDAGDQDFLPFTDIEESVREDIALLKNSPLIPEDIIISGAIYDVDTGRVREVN
The experiment in a line: stopped-flow CO2 hydrase assay, SmuCA. The following applies: mean from 3 different assays, errors ±5–10%.

The target of another assay is T3, PgiCAγ (Porphyromonas gingivalis, UniProt Q7MV79).
T3 sequence (Q7MV79 1-192): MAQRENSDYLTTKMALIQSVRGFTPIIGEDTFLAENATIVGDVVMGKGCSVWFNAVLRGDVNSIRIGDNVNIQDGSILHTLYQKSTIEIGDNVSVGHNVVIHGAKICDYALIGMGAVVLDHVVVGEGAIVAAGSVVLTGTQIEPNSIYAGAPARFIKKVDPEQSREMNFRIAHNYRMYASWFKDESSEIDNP
The assay can be described thus: stopped-flow CO2 hydrase assay, PgiCAγ. The settings on record: mean from 3 different assays, errors ±5–10%.

The target of a further assay is T4, MgCA (Malassezia globosa, UniProt A8Q1N3).
T4 sequence (A8Q1N3 1-241): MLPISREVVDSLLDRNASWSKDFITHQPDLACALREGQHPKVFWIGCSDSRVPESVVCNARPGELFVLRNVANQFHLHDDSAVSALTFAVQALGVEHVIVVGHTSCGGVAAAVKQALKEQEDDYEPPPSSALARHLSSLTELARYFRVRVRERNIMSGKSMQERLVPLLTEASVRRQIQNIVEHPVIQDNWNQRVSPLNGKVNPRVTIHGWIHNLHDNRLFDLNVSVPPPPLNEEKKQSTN
The assay can be described thus: stopped-flow CO2 hydrase assay, MgCA. The following applies: mean from 3 different assays, errors ±5–10%.

The next assay has as its target BpsCAγ (Burkholderia pseudomallei, UniProt Q63SQ4). The settings on record: read-out: KI BpsCAγ.

Chain of BpsCAγ (Q63SQ4 1-174): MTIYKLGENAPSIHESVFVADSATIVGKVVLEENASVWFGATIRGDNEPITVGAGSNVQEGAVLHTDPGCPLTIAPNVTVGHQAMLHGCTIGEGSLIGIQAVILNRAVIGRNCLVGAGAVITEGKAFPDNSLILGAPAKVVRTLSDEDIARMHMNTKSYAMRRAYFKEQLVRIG

Take `CC(=O)c1c(O)c(C)c(O)c2c1OC1=CC(=O)C(=C(C)Nc3ccc(S(N)(=O)=O)cc3O)C(=O)[C@@]12C` [Compound 4a, (R)-4-((1-(6-acetyl-7,9-dihydroxy-8,9b-dimethyl-1,3-dioxo-3,9b-dihydrodibenzo[b,d]furan-2(1H)-ylidene)ethyl)amino)-3-hydroxybenzenesulfonamide]: the Ki stood at 370 nM on hCA I; 66.9 nM at hCA IX; 8.4 nM on hCA II (mean from 3 different assays, errors ±5–10%); 723 nM at CpsCAγ; 888 nM on PgiCAβ; 841 nM on SmuCA. For the same molecule, the Ki amounted to 897 nM at PgiCAγ, 3430 nM on MgCA and 473 nM at BpsCAγ. Also, the “selectivity index (SI) towards hCA I” value on hCA II (hCA II inhibition relative to hCA I) was found to be 43.9. For the same molecule, on hCA II (hCA II inhibition relative to hCA IX), the “selectivity index (SI) towards hCA IX” value was 7.96.

Usually Ki stands for a dissociation constant, usually derived from enzyme kinetics or from competition with a known ligand.
